# Experimental data as given in US11639531B2, “Composition, kit, and method for diagnosis and treatment of taxane anticancer agent-resistant cancer” (SUNGKWANG MEDICAL FOUNDATION, priority 2018, dated 2023).
# Key:
# Assay type in all cases: cell-based, human
# SKpac-17 cells = test: Spheroid-forming assay (miR-150); details: PTX alone-treatment
# Protocol: Spheroid-forming assays were performed to verify the effect of miR-150 on cancer stem cell activation. SKpac-17 cells were transfected with pre miR-150 or pre miR-negative. Cells were plated in Ultra-Low-Attachment Surface 6-well culture plates (Corning, Action, MA, USA) in serum-free DEME/F12 medium (Gibco/Life Technologies, Grand Island, N.Y., USA) supplemented with 20 ng/ml epidermal growth factor (Gibco, Carlsbad, Calif., USA), 10 ng/ml basic fibroblast growth factor (Sigma-Aldrich, St. Louis, Mo., USA), 0.4% bovine serum albumin (Sigma-Aldrich, St. Louis, Mo., USA), and 5 μg/mL insulin (Sigma-Aldrich, St. Louis, Mo., USA) at a density of 1000 cells/cm^2. Spheroid formation (of 50 to 100 cells per spheroid) was assessed 7 days after seeding.
# In order to verify the effect of miR-150 transfection on cancer stem cells (CSCs) activation, a spheroid-forming assay was performed on paclitaxel-resistant SKpac cells in this Example, and alteration of mRNA of the stemness genes was detected using real-time RT-PCR.
# [1] = system: SKpac cells (SKpac-12, SKpac-16, and SKpac-17); test: TUNEL assay for apoptosis (miR-150); details: 48 hours
# Protocol: TUNEL assays were performed after pre miR-150 transfection in SKpac-12 and SKpac-17. After 48 hours, apoptotic cells were analyzed using the In Situ Cell Death Detection kit (Roche, Mannheim, Germany). 2×10^7 cells were fixed with 75% ethanol for 2 hours at −20° C. The cells were washed twice with PBS and incubated with 0.1% Triton X-100 and 0.1% sodium citrate for 2 minutes on ice. After washing twice with PBS, the cells were incubated with a TUNEL-labelling mixture for 1 hour at 37° C. in the dark. The samples were washed twice with PBS and analyzed by fluorescence activated cell sorting (FACS) (Becton Dickinson, Franklin Lakes, N.J., USA).
# In addition, to determine the effect of miR-150 on apoptosis, the SKpac cells (SKpac-12, SKpac-16, and SKpac-17) were transfected with pre miR-150, and then a TUNEL assay was performed on the cells. […] Collectively, the pre miR-150 transfection by itself or increased a sensitivity of tumor cells with respect to PTX and thus decreased tumor cell proliferation and induced apoptosis in PTX-resistant ovarian cancer cells.
# SKpac cells = test: WST (CCK-8) cell viability assay (miR-136); details: PTX-alone treatment
# Protocol: In order to investigate the role of miR-136 in the anticancer agent-sensitivity and proliferation activity of PTX-resistant SKpac cells, cell survival rate, cell proliferation, and apoptosis analyses were performed on the SKpac cells transfected by miR-136 mimics. […] In addition, to confirm whether overexpression of miR-136 increases cell toxicity induced by PTX, degrees of apoptosis were evaluated using a TUNEL analysis. […] In collection of these experiment results, it may be known that the overexpression of miR-136, when used alone or in a combination with PTX, decreases cell viability and cell proliferation of anticancer agent-resistant ovarian cancer cells and increases apoptosis.
# HUVECs = test: Angiogenesis (tube formation) assay (miR-150)
# Protocol: Matrigel (BD Biosciences, California, USA) was placed into flat-bottom, 96-well plate and polymerized for 1 hour at 37° C. HUVECs incubated in M199 containing 1% FBS were harvested after trypsin treatment, resuspended in M199, plated onto the layer of Matrigel at a density of 1×10^4 cells/well, and the supernatant of SKpac-17 cells transfected by pre miR150 was added. After 24 hours, 48 hours, and 72 hours, tube formation was observed.
# Cell migration and angiogenesis are important factors that influence tumor progression and metastasis. In this Example, a wound healing assay and a tube formation assay were performed to examine the effect of pre miR-150 on cell migration and the effect on angiogenesis, respectively.
smiles,measurement,setting,value
"CC(=O)O[C@H]1C(=O)[C@@]2(C)[C@H]([C@H](OC(=O)c3ccccc3)[C@]3(O)C[C@H](OC(=O)[C@H](O)[C@@H](NC(=O)c4ccccc4)c4ccccc4)C(C)=C1C3(C)C)[C@]1(OC(C)=O)CO[C@@H]1C[C@@H]2O [PTX, paclitaxel]",spheroid formation,SKpac-17 cells,no changes
same,apoptosis of the comparison treatments,[1],3.5%
same,influence on the cell viability,SKpac cells,no influence
same,reduction effect (migration / tube formation),HUVECs,not observed
